Results on 11 compounds are retold here after US20240124434A1, “ATF6 INHIBITORS AND USES THEREOF” (Altos Labs, Inc., priority 2018, published 2024).

The assay concerns ATF6. Put plainly: ERSE ATF6-luciferase reporter assay (thapsigargin-induced ER stress). The class given is cell-based, human. To be noted: Homo sapiens, U2OS, thapsigargin-induced ER stress, U2-OS ATF6 luc reporter cells; for pIC50: dose-response 30 μM to 1 nM, read-out: IC50 ATF6-Luc reporter; for inhibition at 1 µM: 8 hr. On the technique in general: Reporter assays use an easily measured gene product as a stand-in for the process of interest.

Where [1] appears, read: 8 h, 1 μM test compound, read-out: Inh. ATF6-Luc @ 1 μM [%].

pIC50: −log10 of the molar value. Where two headings read alike, the source gives them in different places. Some results are limits rather than exact numbers.

Usually pIC50 stands for −log10 of the IC50, conventionally taken in molar units. On to `CC(c1ccc(C(F)(F)F)cc1C(F)(F)F)n1cc(NC(=O)c2cc(-c3ccccn3)ccn2)cn1` (stereo not shown) [Compound 81, N-(1-(1-(2,4-bis(trifluoromethyl)phenyl)ethyl)-1H-pyrazol-4-yl)-[2,4′-bipyridine]-2′-carboxamide], for which the pIC50 was less than 5.00. The inhibition at 1 µM (1 μM test compound, read-out: Inh. ATF6-Luc @ 1 μM [%]) was less than 25%.
By IC50 is commonly meant the concentration that inhibits the measured activity by half. On to `C[C@@H](c1ccc(C(F)(F)F)cc1C(F)(F)F)n1cc(NC(=O)c2cc(-c3cnccn3)on2)cn1` [Compound 132, (S)—N-(1-(1-(2,4-bis(trifluoromethyl)phenyl)ethyl)-1H-pyrazol-4-yl)-5-(pyrazin-2-yl)isoazole-3-carboxamide], for which the inhibition at 1 µM (8 h, read-out: Inh. ATF6-Luc @ 1 μM [%], 1 μM test compound) was less than 25%. In addition, for the setting “read-out: IC50 ATF6-Luc reporter [μM], dose-response 30 μM to 1 nM”, the IC50 is greater than 10 µM.
For the compound `C[C@H](c1ccc(C(F)(F)F)cc1C(F)(F)F)n1cc(NC(=O)c2cc(-c3ccccn3)[nH]n2)cn1` [Compound 119, (R)—N-(1-(1-(2,4-bis(trifluoromethyl)phenyl)ethyl)-1H-pyrazol-4-yl)-5-(pyridin-2-yl)-1H-pyrazole-3-carboxamide], the pIC50 is less than 5.00. For the same compound, under setting [1], the inhibition at 1 µM was less than 25%.
In the same order, the values of `O=C(Nc1cnn([C@@H]2CCc3ccccc32)c1)c1cc(-c2ccco2)on1` [Compound 149, (R)—N-(1-(2,3-dihydro-1H-inden-1-yl)-1H-pyrazol-4-yl)-5-(furan-2-yl)isoxazole-3-carboxamide] are less than 5.00 and less than 25%.
In the same order, the values of `Cc1c(NC(=O)c2cc(-c3ccccn3)on2)cnn1[C@@H](C)c1ccc(C(F)(F)F)cc1C(F)(F)F` [Compound 98, (S)—N-(1-(1-(2,4-bis(trifluoromethyl)phenyl)ethyl)-5-methyl-1H-pyrazol-4-yl)-5-(pyridin-2-yl)isoxazole-3-carboxamide] are less than 5.00 and less than 25%.
In the same order, the values of `Cc1cccc(-c2cc(C(=O)Nc3cnn([C@H](C)c4ccc(C(F)(F)F)cc4C(F)(F)F)c3)no2)n1` [Compound 116, (R)—N-(1-(1-(2,4-bis(trifluoromethyl)phenyl)ethyl)-1H-pyrazol-4-yl)-5-(6-methylpyridin-2-yl)isoxazole-3-carboxamide] are less than 5.00 and 25 to 50%.
With `Cc1cccc(-c2cc(C(=O)Nc3cnn(Cc4ccc(C(F)(F)F)cc4C(F)(F)F)c3)no2)n1` [Compound 115, N-(1-(2,4-bis(trifluoromethyl)benzyl)-1H-pyrazol-4-yl)-5-(6-methylpyridin-2-yl)isoxazole-3-carboxamide], the pIC50 is less than 5.00. Besides, the inhibition at 1 µM under setting [1] is 25 to 50%.
In the same order, the values of `C[C@@H](c1ccc(C(F)(F)F)cc1C(F)(F)F)n1cc(NC(=O)/C=C/c2ccco2)cn1` [Compound 86, (S,E)—N-(1-(1-(2,4-bis(trifluoromethyl)phenyl)ethyl)-1H-pyrazol-4-yl)-3-(furan-2-yl)acrylamide] are less than 5.00 and less than 25%.
With `O=C(Nc1cnn(Cc2ccc(C(F)(F)F)cc2C(F)(F)F)c1)c1cnc(-c2ccccn2)s1` [Compound 118, N-(1-(2,4-bis(trifluoromethyl)benzyl)-1H-pyrazol-4-yl)-2-(pyridin-2-yl)thiazole-5-carboxamide], the pIC50 is 5.00 to 6.00. The inhibition at 1 µM under setting [1] was less than 25%.
On the same counts, the results for `C[C@H](c1ccc(C(F)(F)F)cc1C(F)(F)F)n1cc(NC(=O)c2cnccn2)cn1` [Compound 142, (R)—N-(1-(1-(2,4-bis(trifluoromethyl)phenyl)ethyl)-1H-pyrazol-4-yl)pyrazine-2-carboxamide] are less than 5.00 and less than 25%.
In the same order, the values of `O=C(Nc1cnn(Cc2ccc(C(F)(F)F)cc2C(F)(F)F)c1)c1cncc(-c2ccc(F)cc2)c1` [Compound 20, N-(1-(2,4-bis(trifluoromethyl)benzyl)-1H-pyrazol-4-yl)-5-(4 fluorophenyl)nicotinamide] are less than 5.00 and less than 25%.
